The subject of experiment [1] is IL6 production in THP-1 cells. Kind of experiment: Cytokine Production Assay, LPS-induced IL6 in THP-1 cells. The following applies: Homo sapiens; THP-1, LPS 500 ng/ml 22 hours, 2 independent assays; read-out: average EC50, inhibition of IL6 production. Type of experiment: cell-based. The protocol:
THP-1 cells were cultured in basal media with 1% FBS for 24 hours before the start of the assay. THP-1 cells were plated at 6×10e^4 cells/well and treated with DMSO (vehicle control) or compound 175 at 10 μM highest test concentration and 2 to 3.5-fold serial dilutions up to 8 concentrations (10, 3.5, 1, 0.5, 0.1, 0.035, 0.01, 0.005 μM). For the TNFα assay, 50 ng/mL of LPS was added to the wells after 2 hours to induce cytokine production, and cells were incubated for 5 hours at 37° C. For the IL6 assay, 500 ng/ml of LPS was added after 2 hours and cells were incubated for 22 hours at 37° C. Plates were spun in a centrifuge for 1 minute at 10,000 rpm and supernatants were collected for ELISA. Supernatants were diluted 1:1 for the TNFα assay and 1:4 for the IL6 assay using the assay medium. ELISA was performed using Human TNF-α ELISA MAX™ Deluxe (Catalog #430204, Biolegend, San Diego, Calif.) and Human IL-6 ELISA MAX™ Deluxe (Catalog #430504, Biolegend, San Diego, Calif.) kits. […] Following several washes to remove unbound avidin-HRP, the TMB substrate was added and the plates were read on the Cytation 3 plate reader (Biotek Inc., Winooski, Vt.) at an absorbance of 450 nm with correction at 570 nm. […] Inhibition profile and EC50 was calculated using Prism 5 (GraphPad Software Inc, La Jolla, Calif., USA). […]

For experiment [2], the system named is collagenase-induced tendonitis of the Achilles tendon in Sprague Dawley rats. Kind of experiment: Rat Tendinopathy Model (1), collagenase-induced, tendon histology scoring. The experiment is classed as in vivo. The following applies: for tendon histology score: topical once daily 21 days, total score of 20. The protocol:
Fifty (50 μl) of Collagenase Type IA (10 mg/ml in PBS, pH 7.4, approximately 469 units/mg) (Catalog # C5138, Sigma, St. Louis, Mo.) was injected into the Achilles tendon of both ankles near the osteotendinous junction of male Sprague Dawley CD® IGS rats (CRL, Inc.), using insulin syringes with 28.5 G needle.
Rats were divided into […] with 5 animals per group: Group 1 (sham injection); Group 2 (Collagenase-Vehicle); Group 3 (Collagenase-compound 175 10 mg/mL with 1% BA) and Group 4 (Collagenase-COMPOUND 175 10 mg/mL with 0.5% Tween 80). […] All rats were periodically observed for any pain, illnesses or abnormalities. At various time points, blood was collected for plasma in lithium heparin coated tubes by saphenous vein bleeding. For histology, rats were euthanized using isoflurane, tendons were isolated (n=6 tendons/group), fixed in 10% buffered formalin (Catalog # SF93-4, Fisher, Pittsburgh Pa.) and H & E histology staining was performed at a secondary site (Pacific Pathology, San Diego, Calif.). For biochemical analysis, tendons were isolated (n=4 tendons/group), flash frozen in liquid nitrogen and then stored at −80° C. for subsequent biochemical analysis (not reported).
There is biological variability in response to collagenase when injected directly into the tendons. […] Slides were viewed under an upright light microscope (EVOS AMEX-1200) at a 10× magnification and scored blinded using a 1-4 scoring system of severity: 1—representing severe damage and 4—representing normal tendon, for Linearity of the fiber structure, Shape of the tendon cells, Density of the tendon cells, Inflammation, and Hemorrhage for a total score of twenty (20) using a modification of that described previously (Urdzikova et al., 2014—see Table 3). […]
For tendon scoring, each section was analyzed following a 1-4 point scoring system as previously described (Urdzikova et al., 2014) with the exclusion of one variable, the Thickness of the epitenon, due to the difficulty in discerning the epitenon layer in histology sections. […]

From patent US10806726B2, “Methods of using indazole-3-carb oxamides and their use as Wnt/B-catenin signaling pathway inhibitors” (Samumed, LLC, priority 2016, dated 2020) come the findings set out here.

As a reminder, the EC50 is the concentration needed to bring the measured effect to its halfway point.

On to `COc1ccc(NC(=O)c2n[nH]c3ccc(-c4cncc(CN5CCCCC5)c4)cc23)cn1` [compound 175, N-(6-Methoxypyridin-3-yl)-5-(5-(piperidin-1-ylmethyl)pyridin-3-yl)-1H-indazole-3-carboxamide], for which, in experiment [1], the EC50 was in the range of 356 to 629 nM. In experiment [2] (10 mg/ml with or without BA preservative, topical 21 days), the “blinded histology scoring of tendon injury and inflammation vs vehicle” value is reported as “significantly ameliorated collagenase-induced tendinopathy”. In addition, the tendon histology score in experiment [2] (Group 3, 10 mg/mL with BA) is on record as 14.0 (±0.217); in experiment [2] (Group 4, 10 mg/mL without BA (0.5% Tween 80)), 12.2 (±0.284).
